“Also recorded” adds a separate entry of the source.
Columns and labels:
[1] = test system: MOLM13 (MLL::AF9), MV4;11 (MLL::AF4) and OCI-AML3 (NPM1c) cells expressing MEN1-M327I, -G331R and -T349M; experiment: dose-response assay after lentiviral expression of MEN1 mutants; format: cell-based, human; settings: viable cells after 10 days of drug treatment
Method: Cell lines were obtained from the “American Type Culture Collection” (ATCC) or the “Deutsche Sammlung von Mikroorganismen und Zellkulturen” (DSMZ) and cultured in RPMI-1640™ (for MOLM13, MV4;11 and OCI-AML3) or DMEM™ (for HEK-293T)+10% fetal bovine serum (FBS)+1% penicillin/streptomycin (P/S) (Life Technologies/Thermo Fisher Scientific) at 37° C., 5% CO2 atmosphere and 95% humidity. Cell lines were tested and maintained mycoplasma negative throughout all experiments. […]
To determine Menin-inhibitor responses of MOLM13, MV4;11 or OCI-AML3 cell lines expressing MEN1 mutants, 3×10^3 cells were plated per well in a non-tissue culture treated 96-well plate. […] After 6 days, cells were split 1:7 and counts of viable cells in each well were determined after 10 d of treatment by flow cytometry (LSRFortessa™ with High-throughput sampler (HTS), BD Biosciences). Relative cell counts were calculated as % of DMSO control. The average of each triplicate was calculated and the mean of all replicates was plotted. […]

M327I-mutant Menin = target: T1, M327I-mutant Menin (Homo sapiens, UniProt O00255, M322I); experiment: competitive MLL1 fluorescence polarization (FP) binding assay, displacement of MLL1 peptide
T1 construct: made in house; host or cells: E. coli BL21-DE3 Rosetta
T1 sequence (O00255 1-615 isoform O00255-1 M327I): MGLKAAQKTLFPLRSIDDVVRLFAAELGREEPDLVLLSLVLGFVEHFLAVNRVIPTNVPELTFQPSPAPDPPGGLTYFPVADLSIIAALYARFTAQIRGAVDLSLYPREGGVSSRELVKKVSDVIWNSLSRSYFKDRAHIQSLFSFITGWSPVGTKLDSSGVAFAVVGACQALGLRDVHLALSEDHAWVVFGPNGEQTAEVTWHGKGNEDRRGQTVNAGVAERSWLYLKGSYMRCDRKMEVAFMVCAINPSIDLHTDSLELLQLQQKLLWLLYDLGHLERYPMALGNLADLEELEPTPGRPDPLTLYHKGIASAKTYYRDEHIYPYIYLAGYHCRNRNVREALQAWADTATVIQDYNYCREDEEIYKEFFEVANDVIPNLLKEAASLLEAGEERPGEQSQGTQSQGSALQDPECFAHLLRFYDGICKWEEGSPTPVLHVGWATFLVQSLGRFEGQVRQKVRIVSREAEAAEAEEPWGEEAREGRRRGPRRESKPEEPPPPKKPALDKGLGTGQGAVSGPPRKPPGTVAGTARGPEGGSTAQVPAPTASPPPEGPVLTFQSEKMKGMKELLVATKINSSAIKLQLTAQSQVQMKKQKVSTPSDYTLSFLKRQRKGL
Method: The following peptides were synthesized by GenScript: N-terminal FITC-conjugated MLL14-43(C-A) peptide probe ([…]) with a C-A modification that improves binding to Menin^19, MLL14-43(C-A) ([…]) and MLL14-43(WT) ([…]). N-terminally FITC-labelled and unmodified MLL2 peptides (MLL2(15-48) […]) were synthesized at Genscript. To derive the FITC-MLL14-43(C-A) peptide Kd. FITC-conjugated MLL14-43(C-A) peptide probe at final concentration of 1 nM was mixed with increasing concentration of purified StrepII-Avi-TEV-Menin (5 μM final top concentration, 2-fold, 23-point dilution and a buffer control) in an assay buffer (50 mM Tris pH 7.5, 200 mM NaCl, 0.1% Pluronic F-68 solution (Sigma)) in 384-well microplates at 15 μL assay volume (Corning, 4514) and incubated for 30 min at room temperature (RT). For all assays change in fluorescence polarization was monitored using a PHERAstar FS microplate reader (BMG Labtech). The FITC-conjugated MLL14-43(C-A) peptide Kd was obtained from a fit in GraphPad Prism 9 using one site total model and averaged from three independent runs with three replicates (n=3, FIG. 8). In competitive titration experiments Menin proteins (1 nM WT, 1 nM M327I or 3 nM for T349M) and 1 nM FITC-conjugated MLL14-43(C-A) peptide probe were incubated in an assay buffer for 30 min. SNDX-5613 was then dispensed to 384-well microplate (Corning, 4514) containing 15 μL of the assay mix using D300e Digital Dispenser (HP) and normalized to 1% DMSO followed by 90 min incubation. The fluorescence polarization was monitored by PHERAstar FS microplate reader (BMG Labtech). The MLL14-43(WT) and MLL14-43(C-A) peptide titrations were performed by addition of 7.5 μL of 2-fold 23-point serial dilution into 7.5 μL of assay mix with the final concentrations of 1 nM FITC-conjugated MLL4-43 peptide probe, 1 nM WT Menin or 1 nM Menin M327I or 3 nM Menin T349M in assay buffer. The fluorescence polarization was monitored by PHERAstar FS microplate reader (BMG Labtech). For analysis of the competitive titration experiments the last 10 cycles of the data were averaged to obtain technical replicates. Data from three independent replicates (n=3) was plotted and IC50 values estimated using variable slope equation in GraphPad Prism 9. The calculation of Ki values was performed using Ki calculator available at websites.umich.edu/˜shaomengwanglab/software/calc_ki/index.html^23.

Row | SMILES | drug sensitivity / resistance phenotype [1] | effect of M327I on binding (M327I-mutant Menin; M327I mutant Menin) | increase of IC50-value for MLL-displacement compared to WT Menin (M327I-mutant Menin; M327I mutant vs WT Menin) [fold] | reduction in affinity, fluorescence polarization (M327I-mutant Menin; MEN1-M327I compared to MEN1-WT)
1 | CNc1nc(NC2CCN(Cc3ccc4c(cc(C#N)n4CC45CC(NC=O)(C4)C5)c3C)CC2)c2cc(CC(F)(F)F)sc2n1 [MI-3454] | resistance phenotype could similarly be observed | severely affected | – | –
2 | CCN(C(=O)c1cc(F)ccc1Oc1cncnc1N1CC2(CCN(C[C@H]3CC[C@H](NS(=O)(=O)CC)CC3)CC2)C1)C(C)C [SNDX-5613, revumenib] | robust decrease in SNDX-5613 sensitivity; also recorded: sufficient to establish resistance | – | 51 | over 50 fold

Source: patent US20260185163A1, “MEN1 MUTATIONS AND USES THEREOF” (DANA-FARBER CANCER INSTITUTE, INC., priority 2022, published 2026)
